In assay [1] the target is T1, Alpha-1A adrenergic receptor (Homo sapiens, UniProt P35348).
T1 sequence (P35348 whole entry): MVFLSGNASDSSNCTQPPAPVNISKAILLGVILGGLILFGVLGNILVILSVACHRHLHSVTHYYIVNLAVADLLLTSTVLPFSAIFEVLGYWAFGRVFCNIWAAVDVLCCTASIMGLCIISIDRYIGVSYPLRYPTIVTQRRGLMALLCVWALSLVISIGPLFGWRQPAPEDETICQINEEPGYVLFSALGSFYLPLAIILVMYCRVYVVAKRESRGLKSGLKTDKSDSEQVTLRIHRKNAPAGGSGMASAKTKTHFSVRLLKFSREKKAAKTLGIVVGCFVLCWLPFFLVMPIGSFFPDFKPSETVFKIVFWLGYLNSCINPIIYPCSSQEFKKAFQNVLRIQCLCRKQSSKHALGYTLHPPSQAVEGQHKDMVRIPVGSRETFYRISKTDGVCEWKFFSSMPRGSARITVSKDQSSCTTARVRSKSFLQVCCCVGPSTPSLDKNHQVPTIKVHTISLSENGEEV

The next assay has as its target D(2) dopamine receptor (Rattus norvegicus, UniProt P61169).
Assay [2] deals with T2, Alpha-2C adrenergic receptor (Rattus norvegicus, UniProt P22086).
T2 sequence (P22086 whole entry): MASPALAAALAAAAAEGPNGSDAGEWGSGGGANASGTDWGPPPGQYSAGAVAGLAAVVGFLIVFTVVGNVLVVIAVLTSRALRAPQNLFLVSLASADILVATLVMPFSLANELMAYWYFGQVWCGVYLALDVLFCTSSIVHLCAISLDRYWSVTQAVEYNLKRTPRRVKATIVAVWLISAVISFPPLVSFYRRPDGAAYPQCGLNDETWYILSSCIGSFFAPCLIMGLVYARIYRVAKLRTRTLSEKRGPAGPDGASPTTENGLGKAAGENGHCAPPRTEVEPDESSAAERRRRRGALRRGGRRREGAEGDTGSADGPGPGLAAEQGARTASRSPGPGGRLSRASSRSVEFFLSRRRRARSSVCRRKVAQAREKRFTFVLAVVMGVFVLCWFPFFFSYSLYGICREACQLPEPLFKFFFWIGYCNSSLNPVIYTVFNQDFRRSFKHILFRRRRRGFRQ

In assay [3] the target is T3, Alpha-1B adrenergic receptor (Homo sapiens, UniProt P35368).
T3 sequence (P35368 whole entry): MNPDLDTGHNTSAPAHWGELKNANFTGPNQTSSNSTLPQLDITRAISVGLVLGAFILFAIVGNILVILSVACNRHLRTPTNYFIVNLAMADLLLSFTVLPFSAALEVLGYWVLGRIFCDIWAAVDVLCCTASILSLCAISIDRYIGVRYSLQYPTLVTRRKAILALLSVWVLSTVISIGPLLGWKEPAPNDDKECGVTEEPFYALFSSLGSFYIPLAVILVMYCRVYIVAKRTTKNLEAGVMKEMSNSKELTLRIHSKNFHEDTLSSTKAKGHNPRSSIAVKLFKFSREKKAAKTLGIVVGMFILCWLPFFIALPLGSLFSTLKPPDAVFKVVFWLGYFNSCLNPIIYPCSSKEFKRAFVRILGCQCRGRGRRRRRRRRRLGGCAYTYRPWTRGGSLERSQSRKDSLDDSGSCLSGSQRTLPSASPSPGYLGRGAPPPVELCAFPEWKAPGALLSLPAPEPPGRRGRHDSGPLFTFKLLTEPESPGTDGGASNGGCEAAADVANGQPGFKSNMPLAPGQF

In assay [4] the target is T4, 5-hydroxytryptamine receptor 1A (Homo sapiens, UniProt P08908).
T4 sequence (P08908 whole entry): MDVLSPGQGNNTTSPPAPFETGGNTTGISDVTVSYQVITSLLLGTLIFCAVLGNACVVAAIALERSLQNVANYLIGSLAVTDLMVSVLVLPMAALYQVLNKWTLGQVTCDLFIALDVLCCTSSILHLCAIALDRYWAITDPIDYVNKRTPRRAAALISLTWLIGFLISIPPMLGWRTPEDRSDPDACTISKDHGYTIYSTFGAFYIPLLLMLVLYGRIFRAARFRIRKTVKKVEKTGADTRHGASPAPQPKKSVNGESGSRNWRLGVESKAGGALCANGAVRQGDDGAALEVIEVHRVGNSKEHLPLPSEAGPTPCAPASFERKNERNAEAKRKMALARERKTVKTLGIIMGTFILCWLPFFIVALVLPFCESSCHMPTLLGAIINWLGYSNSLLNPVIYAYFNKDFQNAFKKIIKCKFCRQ

For assay [5], the target named is T5, Alpha-1D adrenergic receptor (Homo sapiens, UniProt P25100).
T5 sequence (P25100 whole entry): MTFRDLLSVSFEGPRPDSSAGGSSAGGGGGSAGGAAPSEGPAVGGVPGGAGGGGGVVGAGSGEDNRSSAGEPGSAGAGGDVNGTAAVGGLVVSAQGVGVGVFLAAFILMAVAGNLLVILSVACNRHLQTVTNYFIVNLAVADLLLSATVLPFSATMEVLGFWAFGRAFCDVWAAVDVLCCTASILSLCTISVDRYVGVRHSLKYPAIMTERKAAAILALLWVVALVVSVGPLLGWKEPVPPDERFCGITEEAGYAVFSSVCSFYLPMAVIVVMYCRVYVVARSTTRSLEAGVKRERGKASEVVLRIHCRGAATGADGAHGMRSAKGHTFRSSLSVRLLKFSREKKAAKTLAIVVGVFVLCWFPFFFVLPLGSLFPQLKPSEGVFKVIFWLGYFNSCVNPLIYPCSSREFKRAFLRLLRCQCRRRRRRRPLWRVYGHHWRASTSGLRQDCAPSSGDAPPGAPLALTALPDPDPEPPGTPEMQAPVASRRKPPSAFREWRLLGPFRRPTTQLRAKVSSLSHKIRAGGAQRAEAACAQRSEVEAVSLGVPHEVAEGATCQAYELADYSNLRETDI

We go through five compounds from BindingDB's records for doi:10.1124/jpet.105.087809 (Universit&Aagrove, 2005).

The structures appear in SMILES notation.

Sequence of D(2) dopamine receptor (P61169 whole entry): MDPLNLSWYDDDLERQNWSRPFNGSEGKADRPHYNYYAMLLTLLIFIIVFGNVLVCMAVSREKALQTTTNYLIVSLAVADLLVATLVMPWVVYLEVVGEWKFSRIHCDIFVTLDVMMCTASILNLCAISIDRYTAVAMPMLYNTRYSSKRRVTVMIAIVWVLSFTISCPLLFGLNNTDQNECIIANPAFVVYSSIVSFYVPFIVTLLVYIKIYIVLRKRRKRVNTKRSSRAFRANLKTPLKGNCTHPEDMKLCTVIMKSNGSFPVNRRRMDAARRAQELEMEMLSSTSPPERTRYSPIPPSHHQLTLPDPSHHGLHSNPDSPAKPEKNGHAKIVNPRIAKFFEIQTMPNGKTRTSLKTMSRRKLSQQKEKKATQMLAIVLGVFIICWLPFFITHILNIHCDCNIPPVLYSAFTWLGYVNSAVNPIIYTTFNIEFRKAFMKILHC

`COc1ccccc1N1CCN(CCN(C(=O)C2CCCCC2)c2ccccc2OC)CC1` [Rec 27/0074]: the Ki in assay [1] is 5.13 nM; on D(2) dopamine receptor, 316 nM; in assay [2], over 10000 nM; in assay [3], 1.02 nM; in assay [4] it was 0.89 nM; in assay [5], 4.17 nM.
Turning to `COc1ccc(Br)c(N2CCN(CCN(C(=O)C3CCCCC3)c3ccccc3OC(F)(F)F)CC2)c1` [Rec 27/0224], the inhibitory constant (Ki) in assay [1] was 224 nM; on D(2) dopamine receptor, 4790 nM; in assay [2] it was over 10000 nM; in assay [3] it was 646 nM; in assay [4] it was 1.05 nM; in assay [5], 724 nM.
On to `COc1ccccc1N1CCN(CCN(C(=O)C2CCCCC2)c2ccccn2)CC1`, for which the Ki at D(2) dopamine receptor is 347 nM; in assay [2], 1260 nM; in assay [3], 661 nM.
For the compound `O=C(CCCN1CCC2(CC1)C(=O)NCN2c1ccccc1)c1ccc(F)cc1` [8-[4-(4-fluorophenyl)-4-oxidanylidene-butyl]-1-phenyl-1,3,8-triazaspiro[4.5]decan-4-one], the results for the Ki in assay [1] and in assay [5] were 20.4 nM and 8.32 nM, respectively.
Consider `COc1ccccc1N1CCN(CCN(C(=O)C2CCCCC2)c2ccccc2[N+](=O)[O-])CC1` [N-[2-[4-(2-methoxyphenyl)-1-piperazinyl]-ethyl]-N-(2-nitrophenyl)cyclohexanecarboxamide], for which the inhibition constant (Ki) at D(2) dopamine receptor was 871 nM; in assay [2], over 10000 nM.

One may read the Ki as a dissociation constant, usually derived from enzyme kinetics or from competition with a known ligand. Lower therefore signals a stronger hold on the target.
